In patent US9284315B2, “Three-ring PI3K and/or mTOR inhibitor” (XUANZHU PHARMA CO., LTD., priority 2011, dated 2016):
“And” between values parts separate entries of the source, which are not always exact repeats. Identical values can stand only once.

Key:
[1] = system: SD rats; assay: Repeated-dose toxicity test in rats; format: in vivo; details: 14 days; for hair loss (animals affected) / lassitude (animals affected) / loose stools (animals affected): gavage once daily, 20 rats
Experimental: The test substances were suspended in 0.5% methylcellulose solution to prepare suspensions with a concentration of 0.5 mg/mL, 1.5 mg/mL and 3 mg/mL.
Animals: SD rats, 6-8 weeks old, SPF grade, purchased from Beijing Vital River Laboratory Animal Technology Co., Ltd., licensed […] No: SCXK (Beijing) 2006-0009.
The test substances were administrated as a suspension via gavage, and administrating volume was 10 mL/kg. 0.5% methyl cellulose solution was used in the solvent group, and the administrating volume was 10 mL/kg, administered once daily for consecutive 14 days. Animals were observed daily appearance and general behavior changes.

[2] = In vivo pharmacokinetics in rats, gavage (PO); details: male, SD, rat, plasma, 4 mg/kg
[3] = In vivo pharmacokinetics in rats, intravenous bolus injection (IV); details: 2 mg/kg; for AUC / half-life: male, SD, rat, plasma, iv; for Cl_obs / Vss_obs: rats, IV
[4] = target: PI3Kα (Homo sapiens (Human), UniProt P42336); assay: PI3K inhibitory activity, Method 1 activity test; format: biochemical; details: PIP2 50 μM, ATP 25 μM
Experimental: Determination of the inhibitory activity of PI3K
(§1) 1. Preparation of test reagents
(1) 1× kinase buffer (50 mM HEPES, pH 7.5, 3 mM MgCl2, 1 mM EGTA, 100 mM NaCl, 0.03% CHAPS, 2 mM DTT);
(2) 4× kinase solution (added PI3K a kinase to 1× kinase buffer to provide 4× kinase solution with a final concentration of 1.65 nM);
(3) 2× substrate solution (added the substrates of PIP2 and ATP into 1× kinase buffer to provide 2× substrate solution with PIP2 final concentration of 50 μM and ATP final concentration of 25 μM);
(4) 4× test substance solutions (100× test substance solutions with different concentration gradients were prepared using 100% DMSO, and diluted 25-fold with 1× kinase buffer to give 4× test substance solutions with different concentration gradients);
(5) Invitrogen's activity test kit with the test solution was kept stand to room temperature.
(§2) 2. 2.5 μL of 4× test solution was added to a 384-well plate in parallel;
(§3) 3. added […] of 4× kinase solution and incubated for 10 min;
4. then added 5 μL of 2× solutions of PIP2 and ATP substrates and incubated for 1 h at room temperature;
5. finally, added 10 μL of test solution to quench the reaction, and read after 15 min;
(§4) 6. IC50 value was obtained via curve fitting. Inhibition rate (%)=(sample value−minimum)/(maximum−minimum)×100
Maximum refers to the readings of control wells without enzyme, minimum refers to the readings of DMSO control wells.
(§5) IC50 value was obtained via curve fitting using a soft of Graphpad 5.0.

[5] = target: mTOR (Homo sapiens (Human), UniProt P42345); assay: mTOR inhibitory activity, Method 1 activity test; format: biochemical; details: 4EBP1 50 nM, ATP 10.8 μM
Experimental: Determination of the Inhibitory Activity of mTOR
as §1
(1) 1× kinase buffer (50 mM HEPES, pH 7.5, 10 mM MgCl2, 1 mM EGTA, 3 mM MnCl, 0.01% Tween-20, 2 mM DTT);
(2) 4× kinase solution (added mTOR kinase to 1× kinase buffer to provide 4× kinase solution with a final concentration of 2.5 nM);
(3) 2× substrate solution (added the substrates of 4EBP1 and ATP into 1× kinase buffer to provide 2× substrate solution with 4EBP1 final concentration of 50 nM and ATP final concentration of 10.8 μM);
(4) 4× test substance solutions (100× test substance solutions with different concentration gradients were prepared using 100% DMSO, and diluted 25-fold with 1× kinase buffer to give 4× test substance solutions with different concentration gradients)
(5) preparation of test solution (test solution containing EDTA and 4EBP1 phosphorylated antibody was prepared using activity test kit with assay buffer, the final concentration of EDTA was 8 mM, and the final concentration of 4EBP1 phosphorylated antibody was 2 nM)
as §2, §3
4. then added 5 μL of 2× solutions of 4EBP1 and ATP substrates and incubated for 1 h at room temperature;
5. finally, added 10 μL of test solution to quench the reaction, and read after 60 min;
as §4
Minimum refers to the readings of control wells without enzyme, maximum refers to the readings of DMSO control wells.
as §5

[6] = system: U87MG; assay: Cell viability assay by XTT method, U87MG; format: cell-based; details: Homo sapiens, U-87 MG
Experimental: (§6) 1. Preparation of Reagents and Compounds
(§7) 2) Preparation of XTT test working solution:
(§8) 100 mg of tetrazolium salt (XTT) powder was weighed and dissolved in dark in 300 mL of phenol red-free serum-free RPMI1640 medium heated to 50° C., filtered and subpackaged, used immediately or within a week. All process should be conducted in dark.
(§9) 3) Preparation of test compounds
(§10) preparation of stock solutions of the test substances: the powder of test substances was dissolved in DMSO in a concentration of 10 mM.
(§11) preparation of gradiently diluted stock solutions of test substances: First, 10 mM of the stock solutions of test substances were diluted serially in 4-fold with DMSO to 10 concentrations. 2 μL of DMSO-diluted solution for each compound was taken and added to 998 μL of culture medium containing 10% fetal bovine serum (FBS). The highest concentration of the test substances was 20 μM, the concentration of DMSO was 0.2%, and there were 10 concentration gradients in total.
(§12) 1) Preparation of cell suspension
(§13) The culture medium was discarded from the flask, and the cells were washed twice with PBS. Added trypsinase to digest the cell and then collected by centrifugation, resuspended with a medium containing 10% FBS, counted and adjusted to an appropriate concentration (cell viability must be greater than 90%). The cell concentration was […].
(§14) 2) The cell suspension was added to 96-well plates, each well 100 μL.
(§15) 3) Incubated in a cell incubator overnight at 37° C., 5% CO2.
(§16) Added compound diluted 2-fold to the cell culture plates, three repeated in total, 100 μL well.
(§17) 5. Cell Viability Assay by XTT Method
(§18) Discarded the culture medium, added XTT test working liquid in an amount of 150 μL well, and kept in a cell incubator at 37° C., 5% CO2 for 2 h, then placed into a microplate reader and read the absorbance at 450 nm.
(§19) 1) The percentage of inhibition was calculated using the following formula: Inhibition rate (%)=(reading(solvent)−reading(compound))/reading(solvent)−reading(positive control))×100
(§20) 2) The data was entered into GraphPad Prism 5.0 and plotted to obtain the curve and IC50.

[7] = system: SKOV-3; assay: Cell viability assay by XTT method, SKOV-3; format: cell-based; details: Homo sapiens, SK-OV-3
Experimental: as §6, §7, §8, §9, §10, §11, §12, §13, §14, §15, §16, §17, §18, §19, §20

Chain of PI3Kα (P42336 whole entry): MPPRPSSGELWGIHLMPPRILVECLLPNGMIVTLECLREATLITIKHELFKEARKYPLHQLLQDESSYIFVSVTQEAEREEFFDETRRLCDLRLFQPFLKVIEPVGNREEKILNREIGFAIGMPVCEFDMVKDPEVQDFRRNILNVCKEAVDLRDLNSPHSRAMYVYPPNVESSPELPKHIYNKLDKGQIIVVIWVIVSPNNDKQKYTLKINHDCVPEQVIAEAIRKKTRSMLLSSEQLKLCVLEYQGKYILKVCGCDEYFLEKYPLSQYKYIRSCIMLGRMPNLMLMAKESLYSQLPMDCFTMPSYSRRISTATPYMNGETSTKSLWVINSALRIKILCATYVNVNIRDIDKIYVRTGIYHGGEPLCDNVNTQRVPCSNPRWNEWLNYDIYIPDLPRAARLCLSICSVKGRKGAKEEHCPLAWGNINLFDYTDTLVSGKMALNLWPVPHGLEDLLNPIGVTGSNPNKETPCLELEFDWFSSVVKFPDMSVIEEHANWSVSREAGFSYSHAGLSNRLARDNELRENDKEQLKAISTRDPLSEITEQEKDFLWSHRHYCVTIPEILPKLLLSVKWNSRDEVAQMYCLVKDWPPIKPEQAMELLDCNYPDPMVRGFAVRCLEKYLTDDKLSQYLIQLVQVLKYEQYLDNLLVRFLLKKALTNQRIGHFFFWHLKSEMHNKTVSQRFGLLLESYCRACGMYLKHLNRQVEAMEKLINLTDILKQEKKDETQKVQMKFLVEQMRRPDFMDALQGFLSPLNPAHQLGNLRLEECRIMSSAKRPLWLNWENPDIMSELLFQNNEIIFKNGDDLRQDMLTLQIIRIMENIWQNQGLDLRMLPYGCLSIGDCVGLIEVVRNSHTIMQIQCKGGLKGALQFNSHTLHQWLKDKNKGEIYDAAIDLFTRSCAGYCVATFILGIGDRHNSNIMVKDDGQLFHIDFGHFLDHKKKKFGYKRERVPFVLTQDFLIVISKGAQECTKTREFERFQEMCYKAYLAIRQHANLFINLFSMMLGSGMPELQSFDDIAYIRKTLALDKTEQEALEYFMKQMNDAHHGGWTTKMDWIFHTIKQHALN
Chain of PI3Kα (P27986 whole entry partner): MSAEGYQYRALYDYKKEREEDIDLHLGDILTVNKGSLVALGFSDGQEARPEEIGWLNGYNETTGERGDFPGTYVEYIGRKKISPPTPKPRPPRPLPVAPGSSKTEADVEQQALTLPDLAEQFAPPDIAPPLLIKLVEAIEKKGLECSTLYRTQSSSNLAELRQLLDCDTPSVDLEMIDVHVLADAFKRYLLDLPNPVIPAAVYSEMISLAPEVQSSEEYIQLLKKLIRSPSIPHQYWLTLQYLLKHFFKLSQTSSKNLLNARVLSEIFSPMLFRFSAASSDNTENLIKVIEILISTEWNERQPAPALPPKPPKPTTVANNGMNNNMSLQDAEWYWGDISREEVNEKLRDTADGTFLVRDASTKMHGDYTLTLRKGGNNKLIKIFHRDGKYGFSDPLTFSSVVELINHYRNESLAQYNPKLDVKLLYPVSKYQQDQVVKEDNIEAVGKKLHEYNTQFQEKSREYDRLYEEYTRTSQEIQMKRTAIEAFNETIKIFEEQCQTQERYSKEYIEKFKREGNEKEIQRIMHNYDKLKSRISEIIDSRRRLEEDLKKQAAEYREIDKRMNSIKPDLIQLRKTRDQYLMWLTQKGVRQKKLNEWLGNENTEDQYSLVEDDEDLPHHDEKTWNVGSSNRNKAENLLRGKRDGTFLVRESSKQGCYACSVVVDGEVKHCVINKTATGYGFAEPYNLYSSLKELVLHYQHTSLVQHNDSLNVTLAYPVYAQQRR

| SMILES | AUC [2] [ng·h/mL] | Cmax [2] [ng/mL] | bioavailability [2] [%] | AUC [3] [ng·h/mL] | half-life [3] [h] | Cl_obs [3] [mL/min/kg] | Vss_obs [3] [L/kg] | IC50 [4] [nM] | IC50 [5] [nM] | IC50 [6] [nM] | IC50 [7] [nM] | other results |
| --- | --- | --- | --- | --- | --- | --- | --- | --- | --- | --- | --- | --- |
| Cn1c(=O)n(-c2ccc(C(C)(C)C#N)cc2)c2c3cc(-c4cnc5ccccc5c4)ccc3ncc21 [BEZ-235, reference compound] | 2180 | 229 | 77.4 | 1440 | 3.19 | 23 | 5.93 | – | – | – | – | hair loss (animals affected) ([1]; high dose 30 mg/kg/day): three and 3/20; lassitude (animals affected) ([1]; high dose 30 mg/kg/day): 0/20; loose stools (animals affected) ([1]; high dose 30 mg/kg/day): fifteen and 15/20; hair loss (animals affected) ([1]; low dose 5 mg/kg/day): 0/20; lassitude (animals affected) ([1]; low dose 5 mg/kg/day): 0/20; loose stools (animals affected) ([1]; low dose 5 mg/kg/day): six and 6/20; hair loss (animals affected) ([1]; middle dose 15 mg/kg/day): 0/20; lassitude (animals affected) ([1]; middle dose 15 mg/kg/day): 0/20; loose stools (animals affected) ([1]; middle dose 15 mg/kg/day): seven and 7/20; Tmax [2]: 2.83 h; half-life [2]: 4.08 h |
| COc1ccc(-c2ccc3ncc4c(c3c2)n(-c2ccc(N3CCNCC3)c(C(F)(F)F)c2)c(=O)n4C)cn1 [BGT-226, reference compound] | 852 | 61.1 | 28 | 1520 | 4.8 | 21.7 | 8.72 | 41.9 | 1.99 | – | – | Tmax [2]: 6 h |
| COc1ccc(-c2ccc3ncc4c(c3n2)N(c2cccc(C(F)(F)F)c2)C(=O)N(C)C4)cn1 [Compound 2] | – | – | – | – | – | – | – | 88.4 | 54.3 | – | – | – |
| CN1Cc2cnc3ccc(-c4ccc(C#N)nc4)nc3c2N(c2cccc(C(F)(F)F)c2)C1=O [Compound 6] | – | – | – | – | – | – | – | 33.8 | 24 | – | – | – |
| CSc1ccc(-c2ccc3ncc4c(c3n2)N(c2cccc(C(F)(F)F)c2)C(=O)N(C)C4)cn1 [Compound 8] | – | – | – | – | – | – | – | 260 | 76.5 | – | – | – |
| CN1Cc2cnc3ccc(-c4ccc(-n5cccn5)nc4)nc3c2N(c2cccc(C(F)(F)F)c2)C1=O [Compound 9] | – | – | – | – | – | – | – | 873 | 43.7 | – | – | – |
| CN1CCN(c2ccc(-c3ccc4ncc5c(c4n3)N(c3cccc(C(F)(F)F)c3)C(=O)N(C)C5)cn2)CC1 [Compound 11] | – | – | – | – | – | – | – | 496 | 31.2 | – | – | – |
| COc1ccc(-c2ccc3ncc4c(c3n2)N(c2ccc(C(C)(C)C#N)cc2)C(=O)N(C)C4)cn1 [Compound 30, 2-(4-(9-(6-methoxypyridin-3-yl)-3-methyl-2-oxo-3,4-dihydropyrimido[5,4-c][1,5]naphthyridin-1(2H)-yl)phenyl)-2-methylpropionitrile] | – | – | – | – | – | – | – | – | – | 499 | 349 | – |
| CN1Cc2cnc3ccc(-c4cnc5ccccc5c4)nc3c2N(c2ccc(C(C)(C)C#N)cc2)C1=O [Compound 52] | – | – | – | – | – | – | – | 154 | 66.5 | 436 | 467 | – |
| CN1Cc2cnc3ccc(-c4cnc5ccccc5c4)nc3c2N(c2ccc(N3CCNCC3)c(C(F)(F)F)c2)C1=O [Compound 80] | – | – | – | – | – | – | – | – | – | 279 | 542 | – |

More lines, in order of falling IC50 [4], values ahead:

| AUC [2] [ng·h/mL] | Cmax [2] [ng/mL] | bioavailability [2] [%] | AUC [3] [ng·h/mL] | half-life [3] [h] | Cl_obs [3] [mL/min/kg] | Vss_obs [3] [L/kg] | IC50 [4] [nM] | IC50 [5] [nM] | IC50 [6] [nM] | IC50 [7] [nM] | SMILES | other results |
| --- | --- | --- | --- | --- | --- | --- | --- | --- | --- | --- | --- | --- |
| 63.4 | 34.9 | 11.6 | 275 | 0.47 | 124 | 4.45 | 29.3 | 38.7 | 901 | 895 | CC(=O)Nc1ccc(-c2ccc3ncc4c(c3n2)N(c2cccc(C(F)(F)F)c2)C(=O)N(C)C4)cn1 [Compound 7, N-(5-(3-methyl-2-oxo-1-(3-(trifluoromethyl)phenyl)-1,2,3,4-tetrahydropyrimido[5,4-c][1,5]naphthyridin-9-yl)pyridin-2-yl)acetamide] | Tmax [2]: 0.5 h; half-life [2]: 1.7 h |
| – | – | – | – | – | – | – | 21 | 30.3 | – | – | COc1ncc(-c2ccc3ncc4c(c3n2)N(c2cccc(C(F)(F)F)c2)C(=O)N(C)C4)cn1 [Compound 13] | – |
| 1380 | 198 | 40.4 | 1700 | 6.48 | 19 | 5.6 | 10.4 | 8.86 | 84.7 | 155 | CN1Cc2cnc3ccc(-c4ccc(N)nc4)nc3c2N(c2cccc(C(F)(F)F)c2)C1=O [Compound 3] | hair loss (animals affected) ([1]; high dose 30 mg/kg/day): one and 1/20; lassitude (animals affected) ([1]; high dose 30 mg/kg/day): four and 4/20; loose stools (animals affected) ([1]; high dose 30 mg/kg/day): one and 1/20; abnormal vital signs ([1]; low dose 5 mg/kg/day): no animals with abnormal vital signs; hair loss (animals affected) ([1]; low dose 5 mg/kg/day): 0/20; lassitude (animals affected) ([1]; low dose 5 mg/kg/day): 0/20; loose stools (animals affected) ([1]; low dose 5 mg/kg/day): 0/20; hair loss (animals affected) ([1]; middle dose 15 mg/kg/day): 0/20; lassitude (animals affected) ([1]; middle dose 15 mg/kg/day): 0/20; loose stools (animals affected) ([1]; middle dose 15 mg/kg/day): one and 1/20; half-life [2]: 5.33 h |
| – | – | – | 357 | 0.72 | 92.8 | 5.28 | 10.2 | 17.5 | 275 | 551 | CN1Cc2cnc3ccc(-c4cnc5[nH]ccc5c4)nc3c2N(c2cccc(C(F)(F)F)c2)C1=O [Compound 22, 3-methyl-9-(1H-pyrrolo[2,3-b]pyridin-5-yl)-1-(3-(trifluoromethyl)phenyl)-3,4-dihydropyrimido[5,4-c][1,5]naphthyridin-1(2H)-one] | – |
| 402 | 147 | 26.3 | 735 | 2.08 | 47.3 | 2.97 | 3.3 | 8.5 | 437 | 890 | CN1Cc2cnc3ccc(-c4cnc(N)nc4)nc3c2N(c2cccc(C(F)(F)F)c2)C1=O [Compound 14, 9-(2-aminopyrimidin-5-yl)-3-methyl-1-(3-(trifluoromethyl)phenyl)-3,4-dihydropyrimido[5,4-c][1,5]naphthyridin-1(2H)-one] | Tmax [2]: 0.5 h; half-life [2]: 1.39 h |
